# pIC50: −log10 of the molar value.
# Biological target: FP receptor (Homo sapiens (Human), UniProt P43088)
# Assay: In vitro test of inhibition of human FP receptor activity (PGF2α-induced calcium flux in FP-expressing CHEM1 cells)
# Type: cell-based
# Details: PGF2α 2 nM, some mean values of multiple determinations
# In short: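 FP antagonism in FP-expressing CHEM1 cells loaded with Fluo-8. Compound preincubated 10 min at 37° C, then receptor stimulated with 2 nM (final) PGF2α in calcium-free Tyrode with 2 mM CaCl2.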
# Sequence of FP receptor (P43088 whole entry): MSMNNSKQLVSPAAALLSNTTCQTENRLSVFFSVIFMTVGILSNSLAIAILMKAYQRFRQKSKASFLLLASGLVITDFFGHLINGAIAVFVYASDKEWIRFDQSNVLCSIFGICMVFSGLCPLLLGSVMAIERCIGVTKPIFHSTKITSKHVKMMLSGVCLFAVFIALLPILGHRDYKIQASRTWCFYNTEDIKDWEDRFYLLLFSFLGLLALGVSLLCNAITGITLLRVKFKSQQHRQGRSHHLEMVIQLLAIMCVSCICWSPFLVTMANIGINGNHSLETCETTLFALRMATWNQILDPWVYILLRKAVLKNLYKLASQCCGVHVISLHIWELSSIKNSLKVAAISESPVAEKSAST
row,Compound,pIC50
1,(+)-5-[({6-Bromo-3-methyl-2-[(^2H10)piperidin-1-yl]quinolin-4-yl}carbonyl)amino]-4-[2-(trifluoromethyl)phenyl]pentanoic acid [Example 270],8.48
2,"Cc1c(N2CCCC(F)C2)nc2ccc(Br)cc2c1C(=O)NCC(CCC(=O)O)c1ccccc1C(F)(F)F (single isomer, unassigned; (+)) [Example 189, (+)-5-[({6-Bromo-2-[3-fluoropiperidin-1-yl]-3-methylquinolin-4-yl}carbonyl)amino]-4-[2-(trifluoromethyl)phenyl]pentanoic acid]",7.60
3,"Cc1c(N2CCCC(F)C2)nc2ccc(Br)cc2c1C(=O)NCC(CCC(=O)O)c1ccccc1OC(F)(F)F (single isomer, unassigned; (+)) [Example 204, (+)-5-[({6-Bromo-2-[3-fluoropiperidin-1-yl]-3-methylquinolin-4-yl}carbonyl)amino]-4-[2-(trifluoromethoxy)phenyl]pentanoic acid]",8.59
4,"Cc1c(N2CCCCC2)nc2ccc(Br)cc2c1C(=O)NCC(CCC(=O)O)c1ccccc1C(F)(F)F (single isomer, unassigned; (+)) [Example 113, (+)-5-({[6-Bromo-3-methyl-2-(piperidin-1-yl)quinolin-4-yl]carbonyl}amino)-4-[2-(trifluoromethyl)phenyl]pentanoic acid]",8.00
5,"Cc1c(N2CCCCC2)nc2ccc(Br)cc2c1C(=O)NCC(CCC(=O)O)c1c(F)cccc1F (single isomer, unassigned; (+)) [Example 245, (+)-5-({[6-Bromo-3-methyl-2-(piperidin-1-yl)quinolin-4-yl]carbonyl}amino)-4-(2,6-difluorophenyl)pentanoic acid]",7.57
6,"Cc1c(N2CCCC(F)(F)C2)nc2ccc(Br)cc2c1C(=O)NCC(CCC(=O)O)c1c(F)cccc1F (single isomer, unassigned; (+)) [Example 251, (+)-5-({[6-Bromo-2-(3,3-difluoropiperidin-1-yl)-3-methylquinolin-4-yl]carbonyl}amino)-4-(2,6-difluorophenyl)pentanoic acid]",7.14
7,"COC1CN(c2nc3ccc(Br)cc3c(C(=O)NCC(CCC(=O)O)c3ccccc3Cl)c2C)C1 (racemic) [Example 92, (+/−)-5-({[6-Bromo-2-(3-methoxyazetidin-1-yl)-3-methylquinolin-4-yl]carbonyl}amino)-4-(2-chlorophenyl)pentanoic acid]",6.41
8,"Cc1c(N2CCCC(C)C2)nc2ccc(Br)cc2c1C(=O)NCC(CCC(=O)O)c1ccccc1OC(F)(F)F (centres unmarked) [Example 140, 5-[({6-Bromo-3-methyl-2-[3-methylpiperidin-1-yl]quinolin-4-yl}carbonyl)amino]-4-[2-(trifluoromethoxy)phenyl]pentanoic acid]",8.64
9,"Cc1c(N2CCCC(F)(F)C2)nc2ccc(Br)cc2c1C(=O)NCC(CCC(=O)O)c1ccccc1Cl (single isomer, unassigned; (+)) [Example 52, (+)-5-({[6-Bromo-2-(3,3-difluoropiperidin-1-yl)-3-methylquinolin-4-yl]carbonyl}amino)-4-(2-chlorophenyl)pentanoic acid]",8.15
10,"Cc1c(N2CCCC(C(F)F)C2)nc2ccc(Br)cc2c1C(=O)NCC(CCC(=O)O)c1ccccc1Cl (centres unmarked) [Example 64, 5-[({6-Bromo-2-[3-(difluoromethyl)piperidin-1-yl]-3-methylquinolin-4-yl}carbonyl)amino]-4-(2-chlorophenyl)pentanoic acid]",8.01
11,"Cc1c(N2CCc3ccccc3C2)nc2ccc(Br)cc2c1C(=O)NCC(CCC(=O)O)c1ccccc1Cl (racemic) [Example 84, (+/−)-5-({[6-Bromo-2-(3,4-dihydroisoquinolin-2(1H)-yl)-3-methylquinolin-4-yl]carbonyl}amino)-4-(2-chlorophenyl)pentanoic acid]",7.55
12,"Cc1c(N2CCCC(C)(C)C2)nc2ccc(Br)cc2c1C(=O)NCC(CCC(=O)O)c1ccccc1Cl (racemic) [Example 42, (+/−)-5-({[6-Bromo-2-(3,3-dimethylpiperidin-1-yl)-3-methylquinolin-4-yl]carbonyl}amino)-4-(2-chlorophenyl)pentanoic acid]",6.89
13,"Cc1c(N2CCCC(C)C2)nc2ccc(Br)cc2c1C(=O)NCC(CCC(=O)O)c1ccccc1OC(F)(F)F (single isomer, unassigned; (-)) [Example 209, (−)-5-[({6-Bromo-3-methyl-2-[3-methylpiperidin-1-yl]quinolin-4-yl}carbonyl)amino]-4-[2-(trifluoromethoxy)phenyl]pentanoic acid]",8.15
14,"Cc1c(N2CCCC2)nc2ccc(Br)cc2c1C(=O)NCC(CCC(=O)O)c1c(Cl)ccc(Cl)c1Cl (racemic) [Example 174, (+/−)-5-({[6-Bromo-3-methyl-2-(pyrrolidin-1-yl)quinolin-4-yl]carbonyl}amino)-4-(2,3,6-trichlorophenyl)pentanoic acid]",7.96
15,"Cc1c(N2CCCCC2)nc2ccc(Br)cc2c1C(=O)NCC(CCC(=O)O)c1c(F)cccc1C(F)(F)F (single isomer, unassigned; (+)) [Example 162, (+)-5-({[6-Bromo-3-methyl-2-(piperidin-1-yl)quinolin-4-yl]carbonyl}amino)-4-[2-fluoro-6-(trifluoromethyl)phenyl]pentanoic acid]",7.38
16,"Cc1c(N2CCCC(F)(F)C2)nc2ccc(Br)cc2c1C(=O)NCC(CCC(=O)O)c1ccccc1OC(F)(F)F (single isomer, unassigned; (-)) [Example 133, (−)-5-({[6-Bromo-2-(3,3-difluoropiperidin-1-yl)-3-methylquinolin-4-yl]carbonyl}amino)-4-[2-(trifluoromethoxy)phenyl]pentanoic acid]",8.70
17,"Cc1c(N2CCCC(F)(F)C2)nc2ccc(Br)cc2c1C(=O)NCC(CCC(=O)O)c1cc(F)ccc1F (single isomer, unassigned; (-)) [Example 262, (−)-5-({[6-Bromo-2-(3,3-difluoropiperidin-1-yl)-3-methylquinolin-4-yl]carbonyl}amino)-4-(2,5-difluorophenyl)pentanoic acid]",7.74
18,"Cc1c(N2CCCC(C)(C)C2)nc2ccc(Br)cc2c1C(=O)NCC(CCC(=O)O)c1ccccc1Cl (single isomer, unassigned; (-)) [Example 43, (−)-5-({[6-Bromo-2-(3,3-dimethylpiperidin-1-yl)-3-methylquinolin-4-yl]carbonyl}amino)-4-(2-chlorophenyl)pentanoic acid]",7.05
19,"Cc1c(N2CCCCC2)nc2ccc(Br)cc2c1C(=O)NCC(CCC(=O)O)c1c(Cl)ccc(F)c1F (single isomer, unassigned; (-)) [Example 145, (−)-5-({[6-Bromo-3-methyl-2-(piperidin-1-yl)quinolin-4-yl]carbonyl}amino)-4-(6-chloro-2,3-difluorophenyl)pentanoic acid]",8.82
20,"Cc1c(N2CCCC2)nc2ccc(Br)cc2c1C(=O)NCC(CCC(=O)O)c1ccccc1C(F)(F)F (single isomer, unassigned; (-)) [Example 280, (−)-5-[({6-Bromo-3-methyl-2-[(^2H8)pyrrolidin-1-yl]quinolin-4-yl}carbonyl)amino]-4-[2-(trifluoromethyl)phenyl]pentanoic acid]",8.62
21,"Cc1c(N2CCOC(CO)C2)nc2ccc(Br)cc2c1C(=O)NCC(CCC(=O)O)c1cc(F)ccc1Cl (centres unmarked) [Example 20, 5-[({6-Bromo-2-[2-(hydroxymethyl)morpholin-4-yl]-3-methylquinolin-4-yl}carbonyl)amino]-4-(2-chloro-5-fluorophenyl)pentanoic acid]",6.31
22,"COc1ccccc1C(CCC(=O)O)CNC(=O)c1c(C)c(N2CCCCC2)nc2ccc(Br)cc12 (single isomer, unassigned; (+)) [Example 235, (+)-5-({[6-Bromo-3-methyl-2-(piperidin-1-yl)quinolin-4-yl]carbonyl}amino)-4-(2-methoxyphenyl)pentanoic acid]",8.85

# Tested on: C57Bl6J mice with DQ12 silica-induced pulmonary fibrosis
# Assay: Silica-induced pulmonary fibrosis in mice, therapeutic chronic 30-day study
# Type: in vivo, mouse
# Details: 10 and 30 mg/kg po bid, versus silica-treated control
# Protocol: B-23. Silica-Induced Pulmonary Fibrosis in Mice: Therapeutic Chronic 30-Day Study with FP Antagonists
# Adult female C57Bl6J mice (Charles River Laboratories, Sulzfeld, Germany) having a weight of 18-20 g were anaesthetized in a chamber with isoflurane (3% v/v) and treated intratracheally with 2.5 mg of crystalline DQ12 silica dissolved in 70 μL of sterile phosphate-buffered saline. Untreated control mice received the same volume of phosphate-buffered saline. […] 30 days after the installation of silica, the animals were anaesthetized with an intraperitoneal injection of ketamine/medetomidine (50 mg/kg and 0.33 mg/kg) combined with a subcutaneous injection of Temgesic (0.06 mg/kg) and sacrifice by exsanguination. Thereafter, the trachea was cannulated, and the animals' lungs were lavaged three times with 0.5 ml of ice-cold phosphate-buffered saline. Thereafter, the lungs were removed, weighed and shock-frozen in dry ice. […] The data are mean values±SEM of 8-12 animals per group. The statistical analysis was conducted with the unpaired Student's t test. P values<0.05 were considered to be significant.
row,Compound,Hydroxyproline formation and fibrosis (result in words)
1,"Cc1c(N2CCCC2)nc2ccc(Br)cc2c1C(=O)NCC(CCC(=O)O)c1ccccc1Cl (single isomer, unassigned; (+)) [Example 35, (+)-5-({[6-bromo-3-methyl-2-(pyrrolidin-1-yl)quinolin-4-yl]carbonyl}amino)-4-(2-chlorophenyl)pentanoic acid]",significant reduction in the hydroxyproline formation and fibrosis

# Reference: US11149018B2, “Substituted N-arylethyl-2-aminoquinoline-4-carboxamides and use thereof” (Bayer Aktiengesellschaft, priority 2017, dated 2021)
